According to patent US9932522B2, “Electrochromic compound, electrochromic composition, display element, and dimming element” (Ricoh Company, Ltd., priority 2014, dated 2018):

Assay: Solubility evaluation of electrochromic compound
Conditions: dissolved to saturation, filtered through 0.5 μm PTFE filter, residue weighed; for Solubility, solvent TFP: 2,2,3,3-tetrafluoropropanol (TFP); for Solubility, solvent DMF: N,N-dimethylformamide (DMF)
Source text: The residue was filtered with a PTFE filter having the average pore diameter of 0.5 μm, and the solvent was dried under the reduced pressure. Then, the residue was weight to calculate an amount of the solute dissolved in each solvent.

**Q.** For O=P(O)(O)CCCCCCCC[n+]1ccc(-c2ccc(-c3cncs3)cc2)cc1.[Br-] [Compound 2b], which “Solubility, solvent TFP” value is on record?
**A.** A (the solubility of 5% by mass or greater was attained relative to each solvent)

**Q.** What about the “Solubility, solvent DMF” value of the same compound?
**A.** A (the solubility of 5% by mass or greater was attained relative to each solvent)

**Q.** For COc1nc(OC)nc(-c2ccc(-c3cc[n+](CCCCCCCCP(=O)(O)O)cc3)cc2)n1.[Br-] [Compound 4b], which “Solubility, solvent TFP” value is on record?
**A.** A (the solubility of 5% by mass or greater was attained relative to each solvent)

**Q.** And the “Solubility, solvent DMF” value?
**A.** A (the solubility of 5% by mass or greater was attained relative to each solvent)

**Q.** For O=P(O)(O)CCCCCCCC[n+]1ccc(-c2ccc(-c3nccs3)cc2)cc1.[Br-] [Compound 3b], which “Solubility, solvent TFP” value is on record?
**A.** A (the solubility of 5% by mass or greater was attained relative to each solvent)

**Q.** And the “Solubility, solvent DMF” value?
**A.** A (the solubility of 5% by mass or greater was attained relative to each solvent)

**Q.** For O=P(O)(O)CCCCCCCC[n+]1cccc(-c2ccc(-c3cccs3)cc2)c1 [Compound 12b], which “Solubility, solvent TFP” value is on record?
**A.** A (the solubility of 5% by mass or greater was attained relative to each solvent)

**Q.** What about the “Solubility, solvent DMF” value of the same compound?
**A.** A (the solubility of 5% by mass or greater was attained relative to each solvent)

**Q.** What does the source list for O=P(O)(O)CCCCCCCC[n+]1ccc(-c2ccc(-c3nc(-c4ccccc4)nc(-c4ccccc4)n3)cc2)cc1.[Br-] [Compound 5b]?
**A.** Solubility, solvent TFP: A (the solubility of 5% by mass or greater was attained relative to each solvent); Solubility, solvent DMF: A (the solubility of 5% by mass or greater was attained relative to each solvent)

**Q.** For O=P(O)(O)CCCCCCCC[n+]1ccc(-c2ccc(-c3cccs3)cc2)cc1.[Br-] [Compound 1b], which “Solubility, solvent TFP” value is on record?
**A.** A (the solubility of 5% by mass or greater was attained relative to each solvent)

**Q.** And the “Solubility, solvent DMF” value?
**A.** A (the solubility of 5% by mass or greater was attained relative to each solvent)

**Q.** For O=P(O)(O)CCCCCCCC[n+]1ccc(-c2ccc(-c3ncccn3)cc2)cc1.[Br-] [Compound 6b], which “Solubility, solvent TFP” value is on record?
**A.** A (the solubility of 5% by mass or greater was attained relative to each solvent)

**Q.** What about the “Solubility, solvent DMF” value of the same compound?
**A.** A (the solubility of 5% by mass or greater was attained relative to each solvent)
